pIC50: −log10 of the molar value. Where a name gives a salt, the structure may show the parent alone.
Tests used:
[1] = target: T1, rat brain kynureninase (Rattus norvegicus, UniProt P70712); assay: Kynureninase assay in the rat brain; format: biochemical; settings: rat brain homogenate; for inhibition at 100 µM: read-out: % INHIBITION AT 100 μM Kyn-Ase
T1 construct: Partial purification of rat brain kynureninase was performed according to Lee et al; from tissue; host or cells: rat brain, partially purified enzyme
T1 sequence (P70712 1-464): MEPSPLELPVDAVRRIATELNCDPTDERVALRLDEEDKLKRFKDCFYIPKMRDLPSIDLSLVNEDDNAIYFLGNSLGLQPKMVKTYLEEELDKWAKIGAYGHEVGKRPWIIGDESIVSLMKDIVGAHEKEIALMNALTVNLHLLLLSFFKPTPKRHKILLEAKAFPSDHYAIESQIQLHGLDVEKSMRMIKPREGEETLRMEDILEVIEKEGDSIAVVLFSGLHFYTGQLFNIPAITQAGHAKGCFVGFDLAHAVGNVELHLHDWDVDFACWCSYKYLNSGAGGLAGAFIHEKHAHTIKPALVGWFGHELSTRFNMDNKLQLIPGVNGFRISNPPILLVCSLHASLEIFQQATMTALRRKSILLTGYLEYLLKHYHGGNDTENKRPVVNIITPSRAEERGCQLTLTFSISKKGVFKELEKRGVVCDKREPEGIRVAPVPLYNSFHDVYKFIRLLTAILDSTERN
Procedure: Kynureninase assay in the rat brain
Partial purification of rat brain kynureninase was performed according to Lee et al., “Isolation and characterization of kynureninase from rat liver”, advances in Tryptophan Research, 431-434, 1992.
To perform rat brain kynureninase assay, a reaction mixture (final volume 0.2 ml) containing 100 mM tris-HCl, pH 8.0, […] pyridoxal phosphate, […] kynurenine, 20 μl of partially purified enzyme and 100 μM of inhibitor solution was prepared.
The reaction was carried out at 37° C. for 3 hours and then stopped by adding 50 μl of perchloric acid 2N. After centrifugation at 11000 rpm for 15 min., anthranilic acid in the supernatant was determined fluorimetrically in a HPLC system (as described for the liver method).

[2] = target: T2, kynurenine-3-hydroxylase (Rattus norvegicus, UniProt O88867); assay: Kynurenine-3-hydroxylase assay in the rat brain; format: biochemical; settings: rat brain homogenate; for inhibition at 100 µM: read-out: % INHIBITION AT 100 μM Kyn-3-OH-Ase; for pIC50: read-out: IC50 Kyn-3-OH-Ase
T2 construct: Brain was homogenized in ice-cold 0.32 M sucrose and centrifugated at 12000×g; from tissue; host or cells: rat brain homogenate, washed pellet suspended
Procedure: Kynurenine-3-hydroxylase assay in the rat brain
Kynurenine-3-hydroxylase activity was quantified by the conversion of L-kynurenine to 3-hydroxykynurenine. Brain was homogenized in ice-cold 0.32 M sucrose and centrifugated at 12000×g, for 30 min at 4 C. The pellet was washed three times with 0.32 M sucrose by centrifugation and suspended in 0.14 M KCl in 20 mM K-phosphate buffer pH 7 (1 g tissue in 2 ml buffer).
The reaction mixture contained: 75 μl of suspended homogenate; 100 μl of substrate solution containing 50 mM K-phosphate buffer pH 7.5, 2 mM MgCl2, 0.4 mM NADPH and 50 μM L-kynurenine (final concentration); 25 μl of different concentrations of inhibitor solutions.
The reaction was stopped by addition of 200 μl of 1 M HClO4 after 60 min. incubation.
3-hydroxykynurenine formed was quantified by HPLC with coulometric detection (working voltage was +0.2 V). The column was a 10 cm C18 reversed phase (3 μm). The mobile phase consisted of 950 ml distilled water. 20 ml acetonitrile, 9 ml triethylamine, 5.9 ml phosphoric acid, 100 mg sodium EDTA and 1.5 g heptanesulfonic acid. The flow-rate was 1 ml/min.

[3] = target: T3, kynureninase (Rattus norvegicus, UniProt P70712); assay: Kynureninase inhibition in rat liver homogenates; format: biochemical; settings: rat liver homogenate; for inhibition at 1000 µM: 1 mM
T3 construct: from tissue; host or cells: rat liver homogenate
T3 sequence (P70712 1-464): T1 sequence (P70712 1-464)
Procedure: The efficacy of the compounds of the invention in the inhibition of kynureninase has been evaluated in rat liver homogenates as described by, Takikawa O. et al. in J. Biol. Chem. 261 (8), 3648-3652 - 1986), with slight modifications.
HPLC method was essentially Takikawa's method, using the same Fluorimetric detection (ex. 313 nm, em. 420 nm) but changing the column (Nova-Pak C18 3.9×300 mm) and the mobile phase (phosphate buffer 80 mM, 13% CH.CN pH 2.5).

[4] = target: T2, kynurenine-3-hydroxylase; assay: Kynurenine-3-hydroxylase assay in the rat liver; format: biochemical; settings: rat liver homogenate
Procedure: Kynurenine-3-hydroxylase assay in the rat liver
Rat liver is homogenized in cold 0.32 M sucrose.
The homogenates are centrifuged at 12000×rpm for 30 minutes at 4° C. The precipitate, after having been washed three times with 0.32 M sucrose by means of centrifugation (12000×rpm for 30 min), is resuspended in 20 mM K-buffer+0.14 M KCl at pH 7 (1 g of liver in 6.5 ml ).
The reaction at 37° C. is terminated by the addition of 200 μl of […] after 10 minutes of incubation.
The concentrations of 3-hydroxy-kynurenine, produced in the absence or presence of the tested molecules are determined by HPLC with coulometric detection (pot. +0.20 V), using for the separation a reversed phase column C18, 10 cm long and a 3 μm particulate. The composition of the mobile phase was: 950 ml of water for HPLC, 20 ml of acetonitrile, 9 ml of triethylamine, 5.9 ml of phosphoric acid, 100 mg of Na EDTA and 1.5 g of heptanesulfonic acid.

[5] = target: T1, rat brain kynureninase; assay: Kynureninase assay in the rat brain; format: biochemical; settings: rat brain homogenate; read-out: IC50 Kyn-Ase

T2 sequence (O88867 whole entry): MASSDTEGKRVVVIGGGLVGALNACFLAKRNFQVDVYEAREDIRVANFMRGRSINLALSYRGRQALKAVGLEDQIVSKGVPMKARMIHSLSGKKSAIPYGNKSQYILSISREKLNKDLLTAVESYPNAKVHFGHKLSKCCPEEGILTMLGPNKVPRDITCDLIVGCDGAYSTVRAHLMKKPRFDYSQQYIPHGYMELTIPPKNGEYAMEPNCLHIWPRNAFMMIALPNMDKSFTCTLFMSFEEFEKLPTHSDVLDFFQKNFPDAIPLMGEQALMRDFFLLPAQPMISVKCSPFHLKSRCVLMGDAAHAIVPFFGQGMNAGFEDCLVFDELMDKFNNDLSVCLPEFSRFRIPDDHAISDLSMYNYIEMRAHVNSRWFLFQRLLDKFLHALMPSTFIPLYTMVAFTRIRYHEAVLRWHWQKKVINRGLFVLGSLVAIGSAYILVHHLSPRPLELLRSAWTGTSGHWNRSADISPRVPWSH

Row | Structure (SMILES) | inhibition at 100 µM [1] | inhibition at 100 µM [2] | pIC50 [2] | melting point | further results
1 | N[C@H](CC(=O)c1cccc(C(F)(F)F)c1)C(=O)O (racemic) [FCE 28680, (R,S)-2-amino-4-(3′-trifluoromethylphenyl)-4-oxo-butyric acid] |  |  |  |  | % INHIBITION AT 100 μM Kyn-Ase [1]: 67%; % INHIBITION AT 100 μM Kyn-3-OH-Ase [2]: 17%
2 | NC(CC(=O)c1ccc(Cl)cc1)C(=O)O (racemic) [FCE 28751, (R,S)-2-amino-4-(4′-chlorophenyl)-4-oxo-butyric acid] | 0% | 85% | 5.15 | 204 to 206 °C | 
3 | N[C@H](CC(=O)c1ccccc1)C(=O)O [FCE 28469, (R)-2-amino-4-phenyl-4-oxo-butyric acid] | 19% |  |  |  | 
4 | COc1ccc(C(=O)CC(N)C(=O)O)cc1 (racemic) [FCE 28628, (R,S)-2-amino-4-(4′-methoxyphenyl)-4-oxo-butyric acid] | 17% | 79% | 4.52 | 160 °C (dec.) | 
5 | NC(CC(=O)c1ccc(Cl)c(Cl)c1)C(=O)O (racemic) [FCE 28833, (R,S)-2-amino-4-(3′,4′-dichlorophenyl)-4-oxo-butyric acid] |  | 99% | 6.70 |  | 
6 | COc1ccc(Cl)cc1C(=O)CC(N)C(=O)O (racemic) (as salt: hydrochloride) [FCE 28836, (R,S)-2-amino-4-(2′-methoxy-5′-chlorophenyl-4-oxo-butyric acid] |  |  |  | 212 to 213 °C | 
7 | NC(CC(=O)c1cccc(Cl)c1)C(=O)O (racemic) [FCE 28752, (R,S)-2-amino-4-(3′-chlorophenyl)-4-oxo-butyric acid] | 60% | 93% | 6.40 | 198 to 200 °C (dec.) | 
8 | Cc1ccccc1C(=O)CC(N)C(=O)O (racemic) [FCE 28630, (R,S)-2-amino-4-(2′-methylphenyl)-4-oxo-butyric acid] | 40% | 81% | 4.64 | 192 to 193 °C (dec.) | 
9 | COc1ccccc1C(=O)C[C@H](N)C(=O)O [FCE 28626, (S)-2-amino-4-(2′-methoxyphenyl)-4-oxo-butyric acid] |  |  |  | 130 °C (dec.) | 
10 | COc1ccc(F)cc1C(=O)C[C@@H](N)C(=O)O (racemic) [FCE 28766, (R,S)-2-amino-4-(2′-methoxy-5′-fluoropheryl)-4-oxo-butyric acid] |  |  |  |  | % INHIBITION AT 100 μM Kyn-Ase [1]: 81%; % INHIBITION AT 100 μM Kyn-3-OH-Ase [2]: 2%
11 | COc1cccc(C(=O)C[C@@H](N)C(=O)O)c1 (racemic) [FCE 28629, (R,S)-2-amino-4-(3′-methoxyphenyl)-4-oxo-butyric acid] |  |  |  |  | % INHIBITION AT 100 μM Kyn-Ase [1]: 54%; % INHIBITION AT 100 μM Kyn-3-OH-Ase [2]: 29%
12 | NC(CC(=O)c1cccc(F)c1)C(=O)O (racemic) [FCE 28764, (R,S)-2-amino-4-(3′-fluorophenyl)-4-oxo-butyric acid] | 0% | 93% | 6.05 | 194 to 195 °C (dec.) | 
13 | COc1ccc(Cl)cc1C(=O)CC(N)C(=O)O (racemic) [FCE 28836, (R,S)-2-amino-4-(2′-methoxy-5′-chlorophenyl-4-oxo-butyric acid] |  | 73% | 4.48 |  | 
14 | NC(CC(=O)c1ccccc1)C(=O)O (racemic) [FCE 27377, (R,S)-2-amino-4-phenyl-4-oxo-butyric acid] | 35.6% |  |  |  | inhibition at 100 µM [3]: 46%; inhibition at 1000 µM [3]: 86%
15 | N[C@H](CC(=O)c1ccccc1Cl)C(=O)O (racemic) [FCE 28753, (R,S)-2-amino-4-(2′-chloroohenyl)-4-oxo-butyric acid] |  |  |  |  | % INHIBITION AT 100 μM Kyn-Ase [1]: 71%; % INHIBITION AT 100 μM Kyn-3-OH-Ase [2]: 22%
16 | COc1ccccc1C(=O)CC(N)C(=O)O (racemic) [FCE 27384, (R,S)-2-amino-4-(2′-methoxyphenyl)-4-oxo-butyric acid] | 86% | 4% |  | 115 °C (dec.) | inhibition at 100 µM [3]: 96%; inhibition at 1000 µM [3]: 97%; inhibition at 100 µM ([4]; 100 μM): 3%; inhibition at 1000 µM ([4]; 1 mM): 30%; pIC50 [5]: 5.22
17 | N[C@H](CC(=O)c1ccccc1F)C(=O)O (racemic) [FCE 28631, (R,S)-2-amino-4-(2′-fluorophenyl)-4-oxo-butyric acid] |  |  |  |  | % INHIBITION AT 100 μM Kyn-Ase [1]: 52%; % INHIBITION AT 100 μM Kyn-3-OH-Ase [2]: 47%
18 | N[C@@H](CC(=O)c1ccccc1)C(=O)O [FCE 28468, (S)-2-amino-4-phenyl-4-oxo-butyric acid] | 61% |  |  |  | 
